Test results published in the supplement of paper PMC10307832.

Experiments:
Experiment in all cases: relative viability (nuclei count vs DMSO), 5 days (fraction); higher = more cells survive
BX 795 + Pictilisib = compound: O=C(NCCCNc1nc(Nc2cccc(NC(=O)N3CCCC3)c2)ncc1I)c1cccs1 [BX 795] + CS(=O)(=O)N1CCN(Cc2cc3nc(-c4cccc5[nH]ncc45)nc(N4CCOCC4)c3s2)CC1 [Pictilisib] (partner 1 µM)
Summary of the method: (§1)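 Medians of duplicate plates are given as relative viability. That measure is the nuclei count in treated wells divided by the count in vehicle wells. Counts were taken on 4× images of lung cancer cell lines in 1536-well plates, 5 days after pin-tool dosing the day after seeding with one drug alone or a fixed anchor-drug dose plus five library-drug doses (not always all listed) in √10 steps.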

BX 795 + Decitabine = compound: O=C(NCCCNc1nc(Nc2cccc(NC(=O)N3CCCC3)c2)ncc1I)c1cccs1 [BX 795] + Nc1ncn([C@H]2C[C@H](O)[C@@H](CO)O2)c(=O)n1 [Decitabine] (partner 2 µM)
Summary of the method: as §1

BX 795 + AZD7762 = compound: O=C(NCCCNc1nc(Nc2cccc(NC(=O)N3CCCC3)c2)ncc1I)c1cccs1 [BX 795] + NC(=O)Nc1cc(-c2cccc(F)c2)sc1C(=O)N[C@H]1CCCNC1 [AZD7762] (partner 0.2 µM)
Summary of the method: as §1

BX 795 + Trametinib = compound: O=C(NCCCNc1nc(Nc2cccc(NC(=O)N3CCCC3)c2)ncc1I)c1cccs1 [BX 795] + CC(=O)Nc1cccc(-n2c(=O)n(C3CC3)c(=O)c3c(Nc4ccc(I)cc4F)n(C)c(=O)c(C)c32)c1 [Trametinib] (partner 0.02 µM)
Summary of the method: as §1

BX 795 + Pemetrexed = compound: O=C(NCCCNc1nc(Nc2cccc(NC(=O)N3CCCC3)c2)ncc1I)c1cccs1 [BX 795] + Nc1nc2[nH]cc(CCc3ccc(C(=O)N[C@@H](CCC(=O)O)C(=O)O)cc3)c2c(=O)[nH]1 [Pemetrexed] (partner 0.2 µM)
Summary of the method: as §1

## HCC-366
BX 795 + Pictilisib; first compound 0.04 µM
  relative viability: 0.145
BX 795 + Pictilisib; first compound 0.1265 µM
  relative viability: 0.137
BX 795 + Pictilisib; first compound 0.4 µM
  relative viability: 0.104
BX 795 + Pictilisib; first compound 1.265 µM
  relative viability: 0.0928
BX 795 + Decitabine; first compound 0.04 µM
  relative viability: 0.332
BX 795 + Decitabine; first compound 0.1265 µM
  relative viability: 0.371
BX 795 + Decitabine; first compound 0.4 µM
  relative viability: 0.31
BX 795 + Decitabine; first compound 1.265 µM
  relative viability: 0.255
BX 795 + AZD7762; first compound 0.04 µM
  relative viability: 0.228
BX 795 + AZD7762; first compound 0.1265 µM
  relative viability: 0.227
BX 795 + AZD7762; first compound 0.4 µM
  relative viability: 0.19
BX 795 + AZD7762; first compound 1.265 µM
  relative viability: 0.306
BX 795 + Trametinib; first compound 0.04 µM
  relative viability: 0.391
BX 795 + Trametinib; first compound 0.1265 µM
  relative viability: 0.338
BX 795 + Trametinib; first compound 0.4 µM
  relative viability: 0.421
BX 795 + Trametinib; first compound 1.265 µM
  relative viability: 0.32
BX 795 + Pemetrexed; first compound 0.04 µM
  relative viability: 0.104
BX 795 + Pemetrexed; first compound 0.1265 µM
  relative viability: 0.168
BX 795 + Pemetrexed; first compound 0.4 µM
  relative viability: 0.0915
BX 795 + Pemetrexed; first compound 1.265 µM
  relative viability: 0.149

## NCI-H2170
BX 795 + Pictilisib; first compound 0.04 µM
  relative viability: 0.3
BX 795 + Pictilisib; first compound 0.1265 µM
  relative viability: 0.283
BX 795 + Pictilisib; first compound 0.4 µM
  relative viability: 0.283
BX 795 + Pictilisib; first compound 1.265 µM
  relative viability: 0.249
BX 795 + Decitabine; first compound 0.04 µM
  relative viability: 0.542
BX 795 + Decitabine; first compound 0.1265 µM
  relative viability: 0.47
BX 795 + Decitabine; first compound 0.4 µM
  relative viability: 0.48
BX 795 + Decitabine; first compound 1.265 µM
  relative viability: 0.443
BX 795 + AZD7762; first compound 0.04 µM
  relative viability: 0.874
BX 795 + AZD7762; first compound 0.1265 µM
  relative viability: 1.09
BX 795 + AZD7762; first compound 0.4 µM
  relative viability: 0.812
BX 795 + AZD7762; first compound 1.265 µM
  relative viability: 0.791
BX 795 + Trametinib; first compound 0.04 µM
  relative viability: 0.948
BX 795 + Trametinib; first compound 0.1265 µM
  relative viability: 0.945
BX 795 + Trametinib; first compound 0.4 µM
  relative viability: 0.93
BX 795 + Trametinib; first compound 1.265 µM
  relative viability: 0.951
BX 795 + Pemetrexed; first compound 0.04 µM
  relative viability: 0.271
BX 795 + Pemetrexed; first compound 0.1265 µM
  relative viability: 0.286
BX 795 + Pemetrexed; first compound 0.4 µM
  relative viability: 0.243
BX 795 + Pemetrexed; first compound 1.265 µM
  relative viability: 0.249

## NCI-H441
BX 795 + Pictilisib; first compound 0.04 µM
  relative viability: 0.609
BX 795 + Pictilisib; first compound 0.1265 µM
  relative viability: 0.503
BX 795 + Pictilisib; first compound 0.4 µM
  relative viability: 0.666
BX 795 + Pictilisib; first compound 1.265 µM
  relative viability: 0.37
BX 795 + Decitabine; first compound 0.04 µM
  relative viability: 0.281
BX 795 + Decitabine; first compound 0.1265 µM
  relative viability: 0.262
BX 795 + Decitabine; first compound 0.4 µM
  relative viability: 0.316
BX 795 + Decitabine; first compound 1.265 µM
  relative viability: 0.245
BX 795 + AZD7762; first compound 0.04 µM
  relative viability: 1.23
BX 795 + AZD7762; first compound 0.1265 µM
  relative viability: 1.21
BX 795 + AZD7762; first compound 0.4 µM
  relative viability: 1.07
BX 795 + AZD7762; first compound 1.265 µM
  relative viability: 0.866
BX 795 + Trametinib; first compound 0.04 µM
  relative viability: 0.545
BX 795 + Trametinib; first compound 0.1265 µM
  relative viability: 0.4
BX 795 + Trametinib; first compound 0.4 µM
  relative viability: 0.596
BX 795 + Trametinib; first compound 1.265 µM
  relative viability: 0.335
BX 795 + Pemetrexed; first compound 0.04 µM
  relative viability: 0.255
BX 795 + Pemetrexed; first compound 0.1265 µM
  relative viability: 0.272
BX 795 + Pemetrexed; first compound 0.4 µM
  relative viability: 0.281
BX 795 + Pemetrexed; first compound 1.265 µM
  relative viability: 0.267

## LK-2
BX 795 + Pictilisib; first compound 0.04 µM
  relative viability: 0.622
BX 795 + Pictilisib; first compound 0.1265 µM
  relative viability: 0.556
BX 795 + Pictilisib; first compound 0.4 µM
  relative viability: 0.47
BX 795 + Pictilisib; first compound 1.265 µM
  relative viability: 0.557
BX 795 + Decitabine; first compound 0.04 µM
  relative viability: 0.447
BX 795 + Decitabine; first compound 0.1265 µM
  relative viability: 0.266
BX 795 + Decitabine; first compound 0.4 µM
  relative viability: 0.294
BX 795 + Decitabine; first compound 1.265 µM
  relative viability: 0.271
BX 795 + AZD7762; first compound 0.04 µM
  relative viability: 0.367
BX 795 + AZD7762; first compound 0.1265 µM
  relative viability: 0.33
BX 795 + AZD7762; first compound 0.4 µM
  relative viability: 0.445
BX 795 + AZD7762; first compound 1.265 µM
  relative viability: 0.3
BX 795 + Trametinib; first compound 0.04 µM
  relative viability: 0.757
BX 795 + Trametinib; first compound 0.1265 µM
  relative viability: 0.837
BX 795 + Trametinib; first compound 0.4 µM
  relative viability: 0.583
BX 795 + Trametinib; first compound 1.265 µM
  relative viability: 0.629
BX 795 + Pemetrexed; first compound 0.04 µM
  relative viability: 0.277
BX 795 + Pemetrexed; first compound 0.1265 µM
  relative viability: 0.237
BX 795 + Pemetrexed; first compound 0.4 µM
  relative viability: 0.269
BX 795 + Pemetrexed; first compound 1.265 µM
  relative viability: 0.24

## LXF-289
BX 795 + Pictilisib; first compound 0.04 µM
  relative viability: 0.844
BX 795 + Pictilisib; first compound 0.1265 µM
  relative viability: 0.77
BX 795 + Pictilisib; first compound 0.4 µM
  relative viability: 0.879
BX 795 + Pictilisib; first compound 1.265 µM
  relative viability: 0.649
BX 795 + Decitabine; first compound 0.04 µM
  relative viability: 0.448
BX 795 + Decitabine; first compound 0.1265 µM
  relative viability: 0.347
BX 795 + Decitabine; first compound 0.4 µM
  relative viability: 0.582
BX 795 + Decitabine; first compound 1.265 µM
  relative viability: 0.373
BX 795 + AZD7762; first compound 0.04 µM
  relative viability: 1.07
BX 795 + AZD7762; first compound 0.1265 µM
  relative viability: 1.14
BX 795 + AZD7762; first compound 0.4 µM
  relative viability: 0.995
BX 795 + AZD7762; first compound 1.265 µM
  relative viability: 1.06
BX 795 + Trametinib; first compound 0.04 µM
  relative viability: 0.523
BX 795 + Trametinib; first compound 0.1265 µM
  relative viability: 0.67
BX 795 + Trametinib; first compound 0.4 µM
  relative viability: 0.725
BX 795 + Trametinib; first compound 1.265 µM
  relative viability: 0.631
BX 795 + Pemetrexed; first compound 0.04 µM
  relative viability: 0.898
BX 795 + Pemetrexed; first compound 0.1265 µM
  relative viability: 0.832
BX 795 + Pemetrexed; first compound 0.4 µM
  relative viability: 0.894
BX 795 + Pemetrexed; first compound 1.265 µM
  relative viability: 0.831

## HOP-62
BX 795 + Pictilisib; first compound 0.04 µM
  relative viability: 0.803
BX 795 + Pictilisib; first compound 0.1265 µM
  relative viability: 0.586
BX 795 + Pictilisib; first compound 0.4 µM
  relative viability: 0.682
BX 795 + Pictilisib; first compound 1.265 µM
  relative viability: 0.66
BX 795 + Decitabine; first compound 0.04 µM
  relative viability: 0.241
BX 795 + Decitabine; first compound 0.1265 µM
  relative viability: 0.223
BX 795 + Decitabine; first compound 0.4 µM
  relative viability: 0.295
BX 795 + Decitabine; first compound 1.265 µM
  relative viability: 0.296
BX 795 + AZD7762; first compound 0.04 µM
  relative viability: 0.602
BX 795 + AZD7762; first compound 0.1265 µM
  relative viability: 0.715
BX 795 + AZD7762; first compound 0.4 µM
  relative viability: 0.672
BX 795 + AZD7762; first compound 1.265 µM
  relative viability: 0.528
BX 795 + Trametinib; first compound 0.04 µM
  relative viability: 0.374
BX 795 + Trametinib; first compound 0.1265 µM
  relative viability: 0.369
BX 795 + Trametinib; first compound 0.4 µM
  relative viability: 0.365
BX 795 + Trametinib; first compound 1.265 µM
  relative viability: 0.317
BX 795 + Pemetrexed; first compound 0.04 µM
  relative viability: 0.303
BX 795 + Pemetrexed; first compound 0.1265 µM
  relative viability: 0.284
BX 795 + Pemetrexed; first compound 0.4 µM
  relative viability: 0.296
BX 795 + Pemetrexed; first compound 1.265 µM
  relative viability: 0.306

## EMC-BAC-2
BX 795 + Pictilisib; first compound 0.04 µM
  relative viability: 0.533
BX 795 + Pictilisib; first compound 0.1265 µM
  relative viability: 0.488
BX 795 + Pictilisib; first compound 0.4 µM
  relative viability: 0.479
BX 795 + Pictilisib; first compound 1.265 µM
  relative viability: 0.415
BX 795 + Decitabine; first compound 0.04 µM
  relative viability: 1.02
BX 795 + Decitabine; first compound 0.1265 µM
  relative viability: 1.03
BX 795 + Decitabine; first compound 0.4 µM
  relative viability: 0.962
BX 795 + Decitabine; first compound 1.265 µM
  relative viability: 0.736
BX 795 + AZD7762; first compound 0.04 µM
  relative viability: 1.06
BX 795 + AZD7762; first compound 0.1265 µM
  relative viability: 1.09
BX 795 + AZD7762; first compound 0.4 µM
  relative viability: 0.945
BX 795 + AZD7762; first compound 1.265 µM
  relative viability: 0.727
BX 795 + Trametinib; first compound 0.04 µM
  relative viability: 0.943
BX 795 + Trametinib; first compound 0.1265 µM
  relative viability: 0.921
BX 795 + Trametinib; first compound 0.4 µM
  relative viability: 0.868
BX 795 + Trametinib; first compound 1.265 µM
  relative viability: 0.749
BX 795 + Pemetrexed; first compound 0.04 µM
  relative viability: 0.383
BX 795 + Pemetrexed; first compound 0.1265 µM
  relative viability: 0.446
BX 795 + Pemetrexed; first compound 0.4 µM
  relative viability: 0.428
BX 795 + Pemetrexed; first compound 1.265 µM
  relative viability: 0.454
